Assay results from patent publication US7297689B2, “Method for preparing peritoneal dialysate” (Tokai University Educational System, priority 1998, dated 2007).
“Also recorded” adds a separate entry of the source. Read-outs that look alike come from different tables or passages of the source.

Columns and labels:
[1] = tested on: VEGF mRNA; test: VEGF mRNA expression in cultured rat mesothelial cells (semiquantitative RT-PCR); type: cell-based; conditions: 3 hours
Method: Peritoneum was obtained from 6-week-old male CD (SD) IGS rats (Charles-River, Kanagawa, Japan). Mesothelial cells were isolated based on the method of Hjelle et al. (Hjelle J T et al., Perit Dial Int, 9: 341-347 (1989)) and cultured in Dulbecco's modified Eagle's medium (DMEM) containing 10% fetal bovine serum. The mesothelial cells at passage 7 to 10 were cultured for 3 hours in a CO2 incubator in the presence of various concentrations of glucose degradation products (glyoxal, methylglyoxal (Sigma, St. Louis, Mo.), or 3-deoxyglucosone (kindly provided from Fuji Memorial Research Institute, Otsuka Pharmaceutical Co., Kyoto, Japan). The expression of VEGF mRNA was analyzed by semiquantitative RT-PCR. Total RNA was isolated from the mesothelial cells using Rneasy Mini Kit (Qiagen, Germany). Five micrograms of the RNA was reverse-transcribed using oligo(dT)12-18 primers (Gibco BRL, Gaithersburg, Md.) with 200 units of RNase H-free reverse transcriptase (Superscript II: Gibco BRL) and PCR amplification was performed as described previously (Miyata T et al., J Clin Invest, 93: 521-528 (1994)). The sequences of the primers used for the amplification of rat VEGF were 5′-[…]-3′ (SEQ ID NO: 1) and 5′-[…]-3′ (SEQ ID NO: 2). The amplified product was 310 bp long. The primers used for the amplification of rat glyceraldehyde-3-phosphate dehydrogenase. (G3PDH) were 5′-[…]-3′ (SEQ ID NO: 3) and 5′-[…]-3′ (SEQ ID NO: 4) and amplified a 322 bp fragment. The G3PDH served as an internal RNA control to allow comparison of RNA levels among different specimens. […] PCR products resolved by electrophoresis in 1.5% agarose gel and stained with ethidium bromide were quantified by measuring the signal intensity with a quantification program (NIH image). […] Messenger RNA was determined in triplicate and the results were averaged for each experiment. […] The results were averaged and expressed as mean±S.D. The statistical significance was evaluated by analysis of variance (ANOVA). […]

[2] = trapping of methylglyoxal by guanidine, aminoguanidine and biguanide agents; conditions: 0.1 M phosphate buffer pH 7.4, 37° C., agent 50 μl of 30 mM
Method: (§1) A mixture (50 μl) of glyoxal, methylglyoxal, and 3-deoxyglucosone (1 mM each) was further mixed with 400 μl of 0.1 M phosphate buffer (pH 7.4), and each (50 μl; 30 mM) of guanidine, aminoguanidine, or a biguanide agent. The resulting mixture was incubated at 37° C. Biguanide agents used were metformin, buformin, and phenformin. After the incubation, glyoxal, methylglyoxal, and 3-deoxyglucosone were converted to quinoxaline derivatives by using o-phenylenediamine, and then the respective concentrations were determined by high performance liquid chromatography.

[3] = subcutaneously administered, mouse; cited from earlier work
[4] = generation of pentosidine on incubation of peritoneal dialysis effluent; parameters: species or system human; conditions: peritoneal dialysis effluent, 0, 1, 10, 100 mM, 37° C.
Method: An effluent from a peritoneal-dialysis patient, which had been kept overnight, was centrifuged, and the resulting supernatant was sterilized by filtration (pore size; 0.45 μm). Aminoguanidine (Tokyo Kasei Kogyo Co.) was added to the fluid at a final concentration of 0, 1, 10, or 100 mM. The mixture was incubated at 37° C. The incubation period was […] when assaying pentosidine, and 2 weeks when assaying protein carbonyl. The quantitative assay for pentosidine was performed using HPLC (SHIMADZU Co.; LC-10A) after the hydrolysis of proteins in 6 N HCl at 110° C. (T. Miyata et al., 1996, J. Am. Soc. Nephrol, 7:1198-1206; T. Miyata et al., 1996, Proc. Natl. Acad. Aci. USA, 93:2353-2358). The quantitative determination of protein carbonyl was carried out by measuring the absorbance (Nippon Molecular Devices Co.; SPECTRAmax 250) of hydrazone generated by the reaction of a carbonyl group after incubation with 2,4-dinitrophenylhydrazine (2,4-DNPH; Wako Pure Chemical Industries, Ltd.) (Levine, R. L. et al., Methods Enzymol., 233, 346-357 (1994)).

[5] = amount of carbonyl compounds other than glucose in peritoneal dialysate (CAPD) effluent, 2,4-DNPH assay; parameters: species or system human; conditions: effluent, 0, 10, 50, 250 mM, unincubated and incubated (37° C. for 15 hours)
Method: The peritoneal dialysate effluent was recovered from the patient and filtered with a filter with a pore size of 0.45 μm. Aminoguanidine (Tokyo Kasei Kogyo Co.) was added to the fluid at a concentration of 0, 10, 50, or 250 mM to prepare a sample solution. An aliquot (1 ml) of the sample solution was added into a plastic tube with a screw cap, and the tube was incubated at 37° C. for 15 hours. The sample solutions were stored at −30° C. prior to the incubation.
Each of 400-μl aliquots of sample solutions was mixed with a 400-μl solution of 0.5 N hydrochloric acid containing 1.5 mM 2,4-DNPH (Wako Pure Chemical Industries, Ltd.), and then, the mixture was stirred at room temperature for 30 minutes to react the carbonyl compound with 2,4-DNPH. […] The aqueous layer was recovered and the absorbance thereof was measured at 360 nm in a spectrophotometric microplate reader (Nippon Molecular Devices Co.; SPECTRAmax250).
Aqueous solutions of various glucose concentrations were prepared and the amounts of carbonyl compounds derived from glucose were measured by the same method as described in (i); a calibration curve of glucose concentration vs. concentration of carbonyl compound was prepared based on this experiment.
Respective glucose concentrations of the samples were determined by using a glucose assay kit (Wako Pure Chemical Industries, Ltd.; Glucose CII-Test Wako). […]

[6] = generation of 5-HMF in peritoneal dialysate during heat sterilization (HPLC); conditions: sterilization 121° C.
Source text: (§2) Peritoneal dialysates contain a high concentration of glucose as an osmoregulatory agent (1.35-4.0 w/v %). Glucose is unstable to heating and undergoes degradation during heat sterilization or storage. Degradation products of glucose have been reported to include 5-hydroxymethylfurfural (5-HMF), levulinic acid, and acetaldehyde (Richard, J. U. et al., Fund. Appl. Toxic., 4: 843-853 (1984), Nilsson, C. B. et al., Perit. Dial. Int., 13: 208-213 (1993)). The inventors tested aminoguanidine for its inhibiting effect on the generation of carbonyl compounds during heat sterilization of a peritoneal dialysate, by monitoring the quantities of 5-HMF and carbonyl compounds. Since the degree of glucose degradation is affected by pH of the solution, two peritoneal dialysates of acidic pH (pH 5.3) and neutral pH (pH 7.0) were prepared to carry out the experiment. Sterilization temperature was 121° C.
5-HMF was assayed by high performance liquid chromatography (SHIMADZU Co.; LC-10A) (Nilsson, C. B. et al., Perit. Dial. Int., 13: 208-213 (1993)).

[7] = trapping of 3-deoxyglucosone by guanidine, aminoguanidine and biguanide agents; conditions: 0.1 M phosphate buffer pH 7.4, 37° C., agent 50 μl of 30 mM
Method: as §1

[8] = generation of carbonyl compounds in peritoneal dialysate during heat sterilization (2,4-DNPH); conditions: acidic and neutral pH, sterilization 121° C.
Source text: as §2
Quantification of carbonyl compounds in the peritoneal dialysate was carried out in the same manner as described in Example 1 by measuring the absorbance after the reaction with 2,4-DNPH (Levine, R. L. et al., Methods Enzymol., 233: 346-357 (1994)). Sterilization temperature was 121° C.

[9] = subcutaneously administered, rat; cited from earlier work
[10] = trapping of methylglyoxal by albumin; conditions: 0.1 M phosphate buffer pH 7.4, 37° C., 50 μl of 100 mg/ml
Method: (§3) A solution (50 μl) consisting of glyoxal, methylglyoxal, and 3-deoxyglucosone (1 mM each) was further mixed with 400 μl of 0.1 M phosphate buffer (pH 7.4), 50 μl of 100 mg/ml bovine serum albumin solution, and the resulting mixture was incubated at 37° C. After the incubation, glyoxal, methylglyoxal, and 3-deoxyglucosone were converted to quinoxaline derivatives by using o-phenylenediamine, and then the respective concentrations were determined by high performance liquid chromatography.

[11] = trapping of glyoxal by albumin; conditions: 0.1 M phosphate buffer pH 7.4, 37° C., 50 μl of 100 mg/ml
Method: as §3

[12] = tested on: VEGF mRNA; test: VEGF mRNA expression and histology of peritoneal tissue of rats given daily intraperitoneal injections; type: in vivo, rat; conditions: daily intraperitoneal injection for 10 days
Method: To further assess the biological effects of methylglyoxal on VEGF mRNA expression in the peritoneum in vivo, rats were given various amounts of methylglyoxal into their peritoneal cavity for 10 days. Six-week-old male CD (SD) IGS rats were given a daily intraperitoneal injection of 50 ml/kg of a saline solution containing various concentrations of methylglyoxal for 10 days. Peritoneum was isolated from the parietal walls and investigated for VEGF mRNA expression. Experiments were performed as the above-mentioned in vitro experiments for rat mesothelial cells. However, mRNA was extracted from peritoneal tissues with ISOGEN (Nippon Gene, Tokyo, Japan). In addition, PCR amplification was performed for 28 cycles for VEGF mRNA and for 16 cycles for G3PDH mRNA.

[13] = tested on: VEGF mRNA; test: VEGF mRNA expression in human endothelial cells (RT-PCR); type: cell-based; conditions: 0 to 400 μM
Method: VEGF mRNA expression was then assessed in endothelial cells cultured in the presence of various concentrations (0 to 400 μM) of methylglyoxal. Experiments were performed as those for rat mesothelial cells. However, primers used for human VEGF amplification were 5′-[…]-3′ (SEQ ID NO: 5) and 5′-[…]-3′ (SEQ ID NO: 6). The amplified fragment was 271 bp long. The same primers were used for human and rat G3PDH amplifications.

[14] = tested on: VEGF protein; test: VEGF protein release into culture supernatant (ELISA); type: cell-based; conditions: human microvascular endothelial cells, 0, 200, 400 μM, 24 hours
Method: The release of VEGF protein into the culture supernatant was measured by ELISA for […] cultured for 24 hours in the presence of various concentrations of methylglyoxal. Human microvascular endothelial cells were purchased from Kurabo (Osaka, Japan) and cultured in VEGF-depleted EGM-2 medium (Takara, Tokyo, Japan). The cells were incubated with methylglyoxal in the same manner as rat peritoneum mesothelial cells. The VEGF protein in the culture supernatant prepared in duplicate was quantified by enzyme-linked immunosorbent assay (ELISA) using a kit (Quantikine: R&D Systems, Minneapolis, USA) according to the attached manual. The experiment was repeated three times. The results were statistically analyzed as described above.

Compound: O=CC(=O)C[C@H](O)[C@H](O)CO [3-deoxyglucosone]
- VEGF mRNA expression ([1]; 0 to 400 μM): neither glyoxal nor 3-deoxyglucosone modified VEGF expression

Compound: N=C(N)N [Guanidine, guanidine]
- concentration of methylglyoxal [2]: markedly reducing the concentration of methylglyoxal

Compound: N=C(N)NN [aminoguanidine]
- concentration of methylglyoxal [2]: markedly reducing the concentration of methylglyoxal; also recorded: drastically reduced the concentration of methylglyoxal
- half-lethal dose [3]: 963 mg/kg
- generation of pentosidine [4]: inhibit the generation of pentosidine in a concentration-dependent manner
- amounts of carbonyl compounds other than glucose [5]: decreased
- generation of 5-HMF ([6]; peritoneal dialysate acidic pH (pH 5.3)): effectively inhibited the generation of 5-HMF in a concentration-dependent manner
- generation of 5-HMF ([6]; peritoneal dialysate neutral pH (pH 7.0)): effectively inhibited the generation of 5-HMF in a concentration-dependent manner
- concentration of 3-deoxyglucosone [7]: markedly reducing the concentration of 3-deoxyglucosone
- generation of carbonyl compounds [8]: effectively inhibited the generation of carbonyl compounds in a concentration-dependent manner
- half-lethal dose [9]: 1258 mg/kg

Compound: Bovine serum albumin: bovine serum albumin solution, 100 mg/ml; SH group-containing protein
- concentration of methylglyoxal [10]: markedly reducing the concentrations of glyoxal and methylglyoxal
- concentration of glyoxal [11]: markedly reducing the concentrations of glyoxal and methylglyoxal

Compound: O=CC=O [glyoxal]
- VEGF mRNA expression ([1]; 0 to 400 μM): neither glyoxal nor 3-deoxyglucosone modified VEGF expression

Compound: CC(=O)C=O [methylglyoxal]
- VEGF mRNA expression ([1]; 400 μM, P<0.0005): stimulated VEGF mRNA expression
- peritoneal tissue on optical microscopy [12]: unaffected
- VEGF mRNA expression in parietal peritoneum ([12]; P<0.05): increased significantly
- VEGF mRNA expression [13]: rose in a dose-dependent manner
- VEGF protein released into culture supernatant [14]: dose-dependent increase of VEGF
